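All cell lines were grown in 96-well plates and treated with compound for 48 hours. Abbreviation: GI50, concentration required for 50% inhibition of growth.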 Calls of active or inactive are those of the source. Cut-off read from the data, not from the text of the source: active = GI50 up to about 1.1 µM and inactive = higher.
Tests used:
Experiment in all cases: inhibition of tumour cell growth, NCI panel, 48 h
[1] = system: HL-60
[2] = system: TK-10
[3] = system: BT-549
[4] = system: MCF7
[5] = system: PC-3
[6] = system: SK-MEL-2
[7] = system: CCRF-CEM
[8] = system: SF-268
[9] = system: HCT-15
[10] = system: HOP-92
[11] = system: OVCAR-5
[12] = system: NCI-H226
[13] = system: NCI/ADR-RES
[14] = system: OVCAR-4
[15] = system: OVCAR-8
[16] = system: MDA-MB-231
[17] = system: ACHN
[18] = system: M14
[19] = system: LOX IMVI
[20] = system: U-251
[21] = system: HOP-62
[22] = system: KM12
[23] = system: RPMI-8226
[24] = system: SW-620
[25] = system: EKVX
[26] = system: SF-295
[27] = system: A498
[28] = system: DU-145
[29] = system: IGROV-1
[30] = system: MDA-MB-435
[31] = system: SF-539
[32] = system: COLO 205
[33] = system: RXF 393
[34] = system: 786-0
[35] = system: NCI-H23
[36] = system: HT-29
[37] = system: SR
[38] = system: MOLT-4
[39] = system: A549
[40] = system: Malme-3M
[41] = system: SK-MEL-5
[42] = system: UO-31
[43] = system: K562
[44] = system: HCT-116
[45] = system: SNB-19
[46] = system: NCI-H460
[47] = system: Hs-578T
[48] = system: UACC-62
[49] = system: SK-MEL-28
[50] = system: SK-OV-3
[51] = system: HCC 2998
[52] = system: OVCAR-3
[53] = system: MDA-N
[54] = system: SN12C
[55] = system: SNB-75
[56] = system: UACC-257
[57] = system: T47D
[58] = system: CAKI-1
[59] = system: NCI-H522

CCC(=O)N/S(=N/S(=O)(=O)c1ccccc1)C(Cl)(Cl)Cl (centres undefined)
GI50 [1]: > 100 µM (inactive) | GI50 [2]: > 100 µM (inactive) | GI50 [3]: > 100 µM (inactive) | GI50 [4]: > 100 µM (inactive) | GI50 [5]: > 100 µM (inactive) | GI50 [6]: > 100 µM (inactive) | GI50 [7]: > 100 µM (inactive) | GI50 [8]: > 100 µM (inactive) | GI50 [9]: > 100 µM | GI50 [10]: > 100 µM (inactive) | GI50 [11]: > 100 µM (inactive) | GI50 [12]: > 100 µM (inactive) | GI50 [13]: > 100 µM (inactive) | GI50 [14]: > 100 µM (inactive) | GI50 [15]: > 100 µM (inactive) | GI50 [16]: > 100 µM (inactive) | GI50 [17]: > 100 µM (inactive) | GI50 [18]: > 100 µM (inactive) | GI50 [19]: > 100 µM (inactive) | GI50 [20]: > 100 µM (inactive) | GI50 [21]: > 100 µM (inactive) | GI50 [22]: > 100 µM (inactive) | GI50 [23]: > 100 µM (inactive) | GI50 [24]: > 100 µM (inactive) | GI50 [25]: > 100 µM (inactive) | GI50 [26]: > 100 µM (inactive) | GI50 [27]: > 100 µM (inactive) | GI50 [28]: > 100 µM (inactive) | GI50 [29]: > 100 µM (inactive) | GI50 [30]: > 100 µM (inactive) | GI50 [31]: > 100 µM (inactive) | GI50 [32]: > 100 µM (inactive) | GI50 [33]: > 100 µM (inactive) | GI50 [34]: > 100 µM (inactive) | GI50 [35]: > 100 µM (inactive) | GI50 [36]: > 100 µM (inactive) | GI50 [37]: > 100 µM (inactive) | GI50 [38]: > 100 µM (inactive) | GI50 [39]: > 100 µM (inactive) | GI50 [40]: > 100 µM (inactive) | GI50 [41]: > 100 µM (inactive) | GI50 [42]: > 100 µM (inactive) | GI50 [43]: > 100 µM (inactive) | GI50 [44]: > 100 µM (inactive) | GI50 [45]: > 100 µM (inactive) | GI50 [46]: > 100 µM (inactive) | GI50 [47]: > 100 µM (inactive) | GI50 [48]: > 100 µM (inactive) | GI50 [49]: > 100 µM (inactive) | GI50 [50]: > 100 µM (inactive) | GI50 [51]: > 100 µM (inactive) | GI50 [52]: > 100 µM (inactive) | GI50 [53]: > 100 µM (inactive) | GI50 [54]: > 100 µM (inactive) | GI50 [55]: > 100 µM (inactive) | GI50 [56]: > 100 µM (inactive) | GI50 [57]: > 100 µM (inactive)

CN(C)c1ccc(/C=C(\C#N)c2nc(-c3cc4ccccc4oc3=O)cs2)cc1
GI50 [1]: > 50 µM (inactive) | GI50 [2]: 8.95 µM (inactive) | GI50 [3]: 1.73 µM (inactive) | GI50 [4]: > 50 µM (inactive) | GI50 [5]: > 50 µM (inactive) | GI50 [6]: 12 µM (inactive) | GI50 [7]: > 50 µM (inactive) | GI50 [8]: 21 µM (inactive) | GI50 [9]: > 50 µM | GI50 [10]: 5.12 µM (inactive) | GI50 [11]: > 50 µM (inactive) | GI50 [12]: 13.6 µM (inactive) | GI50 [13]: 35.5 µM (inactive) | GI50 [14]: 24.9 µM (inactive) | GI50 [15]: 20.3 µM (inactive) | GI50 [16]: 11.6 µM (inactive) | GI50 [17]: 13.3 µM (inactive) | GI50 [18]: 15.7 µM (inactive) | GI50 [19]: > 50 µM (inactive) | GI50 [20]: 6.89 µM (inactive) | GI50 [58]: > 50 µM (inactive) | GI50 [21]: 5.93 µM (inactive) | GI50 [22]: > 50 µM (inactive) | GI50 [23]: > 50 µM (inactive) | GI50 [24]: > 50 µM (inactive) | GI50 [25]: > 50 µM (inactive) | GI50 [26]: 10.6 µM (inactive) | GI50 [28]: > 50 µM (inactive) | GI50 [59]: 6.75 µM (inactive) | GI50 [29]: 15.4 µM (inactive) | GI50 [30]: > 50 µM (inactive) | GI50 [31]: 8.89 µM (inactive) | GI50 [32]: > 50 µM (inactive) | GI50 [33]: 12.3 µM (inactive) | GI50 [34]: 7.23 µM (inactive) | GI50 [36]: > 50 µM (inactive) | GI50 [37]: > 50 µM (inactive) | GI50 [38]: > 50 µM (inactive) | GI50 [39]: > 50 µM (inactive) | GI50 [40]: 4.65 µM (inactive) | GI50 [41]: > 50 µM (inactive) | GI50 [42]: > 50 µM (inactive) | GI50 [43]: > 50 µM (inactive) | GI50 [44]: 20 µM (inactive) | GI50 [45]: 13.2 µM (inactive) | GI50 [46]: > 50 µM (inactive) | GI50 [47]: 13.7 µM (inactive) | GI50 [48]: 8.61 µM (inactive) | GI50 [49]: > 50 µM (inactive) | GI50 [50]: 19.9 µM (inactive) | GI50 [51]: > 50 µM (inactive) | GI50 [53]: > 50 µM (inactive) | GI50 [54]: > 50 µM (inactive) | GI50 [55]: 1.72 µM (inactive) | GI50 [56]: > 50 µM (inactive) | GI50 [57]: > 50 µM (inactive)

O=c1oc2cc(O)ccc2c(O)c1C(c1ccccc1F)c1c(O)c2ccc(O)cc2oc1=O
GI50 [1]: 17.9 µM (inactive) | GI50 [2]: > 100 µM (inactive) | GI50 [3]: 11.3 µM (inactive) | GI50 [4]: 45.2 µM (inactive) | GI50 [5]: > 100 µM (inactive) | GI50 [6]: 45 µM (inactive) | GI50 [8]: 78.2 µM (inactive) | GI50 [9]: 31 µM | GI50 [10]: 65.2 µM (inactive) | GI50 [11]: > 100 µM (inactive) | GI50 [12]: > 100 µM (inactive) | GI50 [13]: > 100 µM (inactive) | GI50 [15]: 56.4 µM (inactive) | GI50 [16]: 95.7 µM (inactive) | GI50 [17]: > 100 µM (inactive) | GI50 [18]: > 100 µM (inactive) | GI50 [19]: 46 µM (inactive) | GI50 [20]: 42.3 µM (inactive) | GI50 [58]: > 100 µM (inactive) | GI50 [21]: > 100 µM (inactive) | GI50 [22]: 78.3 µM (inactive) | GI50 [23]: 29.6 µM (inactive) | GI50 [24]: 38.4 µM (inactive) | GI50 [25]: > 100 µM (inactive) | GI50 [26]: > 100 µM (inactive) | GI50 [27]: > 100 µM (inactive) | GI50 [28]: > 100 µM (inactive) | GI50 [59]: > 100 µM (inactive) | GI50 [29]: > 100 µM (inactive) | GI50 [30]: 43.8 µM (inactive) | GI50 [31]: 31.7 µM (inactive) | GI50 [32]: > 100 µM (inactive) | GI50 [33]: 39.7 µM (inactive) | GI50 [34]: > 100 µM (inactive) | GI50 [35]: > 100 µM (inactive) | GI50 [36]: > 100 µM (inactive) | GI50 [37]: 34.7 µM (inactive) | GI50 [38]: 45.8 µM (inactive) | GI50 [39]: > 100 µM (inactive) | GI50 [41]: 28.4 µM (inactive) | GI50 [42]: > 100 µM (inactive) | GI50 [43]: 25.4 µM (inactive) | GI50 [44]: 48.4 µM (inactive) | GI50 [45]: > 100 µM (inactive) | GI50 [46]: > 100 µM (inactive) | GI50 [47]: 68.9 µM (inactive) | GI50 [48]: 36.6 µM (inactive) | GI50 [49]: 52 µM (inactive) | GI50 [50]: > 100 µM (inactive) | GI50 [51]: 21.2 µM (inactive) | GI50 [52]: > 100 µM (inactive) | GI50 [53]: 61.2 µM (inactive) | GI50 [54]: > 100 µM (inactive) | GI50 [55]: > 100 µM (inactive) | GI50 [56]: > 100 µM (inactive) | GI50 [57]: > 100 µM (inactive)
